Measurements taken from patent publication US11578056B2, “Solid forms comprising (S)-2-(2,6-dioxopiperidin-3-yl)-4-((2-fluoro-4-((3-morpholinoazetidin-1-yl)methyl)benzyl)amino)isoindoline-1,3-dione and salts thereof, and compositions comprising and methods of using the same” (Celgene Corporation, priority 2019, dated 2023).

Legend:
Assay in all cases: Hematological cell line viability/apoptosis flow cytometry assay
Assay type in all cases: cell-based
Mec2 cell line = settings: Mec2 (CLL), 120 h
Procedure: (§1) Cell Proliferation and Viability Assay Using Hematological Cell Lines: The following exemplary anti-proliferative assay uses exemplary hematological cell lines in the following. The in vitro growth inhibitory activity of Compound 1 described herein was evaluated using a 384-well flow cytometry assay.
(§2) The cell lines were plated in 384-well flat bottom plates and assessed with increasing concentrations of compound ranging from 0.00015 to 10 μM or dimethyl sulfoxide (DMSO) control. The final concentration of DMSO was 0.1% (v/v). Following the addition of Compound 1 or DMSO and incubation for 120 hours, cell number and cell death were analyzed by flow cytometry (Attune®, Thermo Fisher) using Annexin V and the live-cell impermeant DNA dye, DRAQ7. Phosphatidylserine translocates from the inner layer to the outer layer of the cell membrane early in apoptosis and Annexin V binds to the exposed phosphatidylserine found on the surface of an apoptotic cell. The vital dye DRAQ7 is excluded by intact live cells and only stains cells that have died as a result of apoptosis or necrosis.
(§3) Flow cytometry data analysis was then performed using the Flow Jo_v10 software to determine the number of viable cells (Annexin V and DRAQ7 double negative staining cells) and percentage of apoptotic cells (Annexin V positive cells) for each condition. The live cell count for every concentration was normalized to the DMSO control (considered as 100%) to calculate the percentage of viable cells remaining after treatment and graphed using GraphPad Prism 7.03. The IC50 (50% inhibitory concentration) and Emax (maximum efficacy achieved) values were then calculated by performing nonlinear regression curve fitting using log(inhibitor) vs. normalized response—variable slope analysis on GraphPad Prism 7.03. Area under the curve (AUC) was calculated by performing area under curve analysis on GraphPad Prism 7.03. Similarly, for apoptosis analysis, the percentage of apoptosis combining both “early” (Annexin V positive and DRAQ7 negative) and “late” apoptosis (Annexin V and DRAQ7 positive) cell gates relative to DMSO was graphed using GraphPad Prism 7.03. The AUC, EC50 (concentration of compound that produces half-maximal apoptosis response) and Ymax (maximal percentage of apoptosis achieved) values from apoptosis curves were calculated by performing area under curve analysis and nonlinear regression curve fitting using log(agonist) vs. normalized response—Variable slope analysis on GraphPad Prism 7.03.
(§4) Dose-response proliferation curves for the panel of hematological cell lines and non-linear curve-fit regression were used to determine IC50, AUC, and Emax for % viable cells (Emax for viability varies between 100 at low doses and 0 at high doses, which corresponds to inhibition of all viable cells), and dose-response apoptosis curves were used to determine the EC50, AUC, and Ymax for % apoptosis (Ymax for apoptosis varies from 0 at low doses and 100 at higher doses which corresponds to death of all cells). Tumor cells were exposed to serial dilutions (0.00015 to 10 μM) of Compound 1 or dimethyl sulfoxide (DMSO) control for 5 days. Viability and apoptosis for all cell lines was determined by Annexin V/7-aminoactinomycin D (7-AAD) flow cytometry.

U-2904 cell line = settings: U-2904 (DLBCL), 120 h
Procedure: as §1, §2, §3, §4

KARPAS-1106P cell line = settings: KARPAS-1106P (DLBCL PMBL); 120 h
Procedure: as §1, §2, §3, §4

SU-DHL-2 cell line = settings: SU-DHL-2 (DLBCL ABC); 120 h
Procedure: as §1, §2, §3, §4

TMD8 cell line = settings: TMD8 (DLBCL ABC); 120 h
Procedure: as §1, §2, §3, §4

SVSL cell line = settings: SVSL (MZL, SMZL), 120 h
Procedure: as §1, §2, §3, §4

STR428 cell line = settings: STR428 (DLBCL), 120 h
Procedure: as §1, §2, §3, §4

WA-OSEL cell line = settings: WA-OSEL (CLL), 120 h
Procedure: as §1, §2, §3, §4

NU-DUL-1 cell line = settings: NU-DUL-1 (DLBCL ABC); 120 h
Procedure: as §1, §2, §3, §4

GDM-1 cell line = settings: GDM-1 (AML); 120 h
Procedure: as §1, §2, §3, §4

OCI-LY3 cell line = settings: OCI-LY3 (DLBCL ABC), 120 h
Procedure: as §1, §2, §3, §4

L-428 cell line = settings: L-428 (HL), 120 h
Procedure: as §1, §2, §3, §4

L-363 cell line = settings: L-363 (MM, PCL), 120 h
Procedure: as §1, §2, §3, §4

[1] = Homo sapiens, read-out: % Viable Cells IC50

O=C1CC[C@H](N2C(=O)c3cccc(NCc4ccc(CN5CC(N6CCOCC6)C5)cc4F)c3C2=O)C(=O)N1 [Compound 1, (S)-2-(2,6-dioxopiperidin-3-yl)-4-((2-fluoro-4-((3-morpholinoazetidin-1-yl)methyl)benzyl)amino)isoindoline-1,3-dione]
% Viable Cells AUC (Mec2 cell line): 312.5 | % Viable Cells Emax (Mec2 cell line): 25.55% | Apoptosis AUC (Mec2 cell line): 339.8 | Apoptosis Ymax (Mec2 cell line): 35.28% | EC50 (Mec2 cell line): 13.3 nM | IC50 (Mec2 cell line; read-out: % Viable Cells IC50): 75.5 nM | % Viable Cells AUC (U-2904 cell line): 334.1 | % Viable Cells Emax (U-2904 cell line): 7.609% | Apoptosis AUC (U-2904 cell line): 456.1 | Apoptosis Ymax (U-2904 cell line): 77.39% | EC50 (U-2904 cell line): 3290 nM | IC50 (U-2904 cell line; read-out: % Viable Cells IC50): 201 nM | % Viable Cells AUC (KARPAS-1106P cell line): 22.22 | % Viable Cells Emax (KARPAS-1106P cell line): 0.1698% | Apoptosis AUC (KARPAS-1106P cell line): 885.2 | Apoptosis Ymax (KARPAS-1106P cell line): 97.08% | % Viable Cells AUC (SU-DHL-2 cell line): 5.586 | % Viable Cells Emax (SU-DHL-2 cell line): 0.2145% | Apoptosis AUC (SU-DHL-2 cell line): 928.4 | Apoptosis Ymax (SU-DHL-2 cell line): 95.98% | % Viable Cells AUC (TMD8 cell line): 4.187 | % Viable Cells Emax (TMD8 cell line): 0.245% | Apoptosis AUC (TMD8 cell line): 963.3 | Apoptosis Ymax (TMD8 cell line): 97.2% | % Viable Cells AUC (SVSL cell line): 368.4 | % Viable Cells Emax (SVSL cell line): 34.07% | Apoptosis AUC (SVSL cell line): 340.2 | Apoptosis Ymax (SVSL cell line): 35.5% | EC50 (SVSL cell line): 2.84 nM | IC50 (SVSL cell line; read-out: % Viable Cells IC50): 95.2 nM | % Viable Cells AUC (STR428 cell line): 43.48 | % Viable Cells Emax (STR428 cell line): 1.227% | Apoptosis AUC (STR428 cell line): 905.9 | Apoptosis Ymax (STR428 cell line): 95.17% | EC50 (STR428 cell line): 102 nM | IC50 (STR428 cell line; read-out: % Viable Cells IC50): 94.7 nM | % Viable Cells AUC (WA-OSEL cell line): 616.1 | % Viable Cells Emax (WA-OSEL cell line): 54.42% | Apoptosis AUC (WA-OSEL cell line): 69.39 | Apoptosis Ymax (WA-OSEL cell line): 7.38% | EC50 (WA-OSEL cell line): 112 nM | IC50 (WA-OSEL cell line; read-out: % Viable Cells IC50): > 10000 nM | % Viable Cells AUC (NU-DUL-1 cell line): 22.12 | % Viable Cells Emax (NU-DUL-1 cell line): 0.0228% | Apoptosis AUC (NU-DUL-1 cell line): 962.8 | Apoptosis Ymax (NU-DUL-1 cell line): 99.84% | % Viable Cells AUC (GDM-1 cell line): 1455 | % Viable Cells Emax (GDM-1 cell line): 388.4% | Apoptosis AUC (GDM-1 cell line): 696.9 | Apoptosis Ymax (GDM-1 cell line): 265% | IC50 (OCI-LY3 cell line; [1]): > 10000 nM | % Viable Cells AUC (OCI-LY3 cell line): 965.1 | % Viable Cells Emax (OCI-LY3 cell line): 85.63% | Apoptosis AUC (OCI-LY3 cell line): 24.63 | Apoptosis Ymax (OCI-LY3 cell line): 4.493% | EC50 (L-428 cell line; Homo sapiens): 64500 nM | IC50 (L-428 cell line; [1]): 252 nM | % Viable Cells AUC (L-428 cell line): 450.4 | % Viable Cells Emax (L-428 cell line): 47.3% | Apoptosis AUC (L-428 cell line): 63.35 | Apoptosis Ymax (L-428 cell line): 27.50% | EC50 (L-363 cell line; Homo sapiens): 7950 nM | IC50 (L-363 cell line; [1]): 1 nM | % Viable Cells AUC (L-363 cell line): 309.1 | % Viable Cells Emax (L-363 cell line): 27.6% | Apoptosis AUC (L-363 cell line): 2.954 | Apoptosis Ymax (L-363 cell line): 2%
